Laboratory results from paper PMC12737022, “Evaluations of Sex Differences in Dosimetry in Rats Following Perfluorohexanesulfonamide (PFHxSA) Oral Exposure” (Toxics, 2025).
Values joined by “and” are separate entries in the source; they are usually repeats but may differ in a detail not shown here. Equal values may be shown once. Read-outs that look alike come from different tables or passages of the source.

Assay: Liver-to-plasma partitioning (Kp)
Type: in vivo, rat
Conditions: for Kp at 120 h: po
Protocol: Liver-to-plasma partitioning (Kp) for PFHxSA was assessed for each sex (SI Text S8, Table 6). There were no sex differences in PFHxSA Kp values. […] Refer to SI Table S15 for Kp results for individual rats. […]
Text S8 Liver-to-Plasma Partitioning Coefficient Calculation
Concentrations (µM) of PFHxSA in liver and plasma were used to calculate experimental liver-to-
plasma (Kp) partitioning values for both sexes across all dose levels using Equation E.
(E) K ௣ = Concentration௢௥௚௔௡Concentration௣௟௔௦௠௔

Q: Which “Female Partition Coefficient (Kp), liver-plasma” value (“Female Partition Coefficient” below) (PFHxSA 0.1 mg/kg/day oral 5 days, female, individual rats) does the source give for `NS(=O)(=O)C(F)(F)C(F)(F)C(F)(F)C(F)(F)C(F)(F)C(F)(F)F` [PFHxSA, Perfluorohexanesulfonamide] here?
A: Its value is 0.516 and 0.491 and 0.293 and 0.378.

Q: What about the “Male Partition Coefficient (Kp), liver-plasma” value (PFHxSA 0.1 mg/kg/day oral 5 days, male, individual rats) of the same molecule?
A: The value was 0.662 and 0.433 and 0.319 and 0.860 and 0.744.

Q: And the “Female Partition Coefficient” value (PFHxSA 0.3 mg/kg/day oral 5 days, female, individual rats)?
A: Its value is 0.633 and 0.239 and 0.486 and 0.499 and 0.302.

Q: What about the “Male Partition Coefficient (Kp), liver-plasma” value (PFHxSA 0.3 mg/kg/day oral 5 days, male, individual rats) of the same molecule?
A: Its value is 0.215 and 0.362 and 0.134 and 0.315 and 0.255.

Q: What about the “Female Partition Coefficient” value (PFHxSA 1 mg/kg/day oral 5 days, female, individual rats) of the same molecule?
A: Its value is 0.197 and 0.224 and 0.122 and 0.325.

Q: And the “Male Partition Coefficient (Kp), liver-plasma” value (PFHxSA 1 mg/kg/day oral 5 days, male, individual rats)?
A: Its value is 0.233 and 0.174 and 0.293 and 0.249.

Q: And the “Female Partition Coefficient” value (PFHxSA 3 mg/kg/day oral 5 days, female, individual rats)?
A: Its value is 0.280 and 0.239 and 0.244.

Q: What about the “Male Partition Coefficient (Kp), liver-plasma” value (PFHxSA 3 mg/kg/day oral 5 days, male, individual rats) of the same molecule?
A: The value was 0.193 and 0.153 and 0.235 and 0.105 and 0.244.

Q: And the “Female Partition Coefficient” value (PFHxSA 10 mg/kg/day oral 5 days, female, individual rats)?
A: The value was 0.145 and 0.119 and 0.113 (2×).

Q: What about the “Male Partition Coefficient (Kp), liver-plasma” value (PFHxSA 10 mg/kg/day oral 5 days, male, individual rats) of the same molecule?
A: The value was 0.249 and 0.178 and 0.194.

Q: And the “Female Partition Coefficient” value (PFHxSA 30 mg/kg/day oral 5 days, female, individual rats)?
A: The value was 0.134 and 0.142 and 0.162 and 0.147.

Q: And the “Male Partition Coefficient (Kp), liver-plasma” value (PFHxSA 30 mg/kg/day oral 5 days, male, individual rats)?
A: The value was 0.142 (2×) and 0.145.

Q: And the “Female Partition Coefficient” value (PFHxSA 100 mg/kg/day oral 5 days, female, individual rats)?
A: The value was 0.187 and 0.344 and 0.214 and 0.213.

Q: What about the “Male Partition Coefficient (Kp), liver-plasma” value (PFHxSA 100 mg/kg/day oral 5 days, male, individual rats) of the same molecule?
A: Its value is 0.506 and 0.754 and 0.306 and 0.230 and 0.221.

Q: What about the Kp at 24 h (both sexes, Sprague Dawley (Crl:CD(SD)), rat, liver and plasma, oral, both sexes across all tested doses) of the same molecule?
A: Its Kp at 24 h is 0.13 to 0.6.

Q: What about the Kp at 120 h (female, Sprague Dawley (Crl:CD(SD)), rat, liver and plasma, 0.1 mg/kg/day, PFHxSA 0.1 mg/kg/day oral 5 days, female, individual rats, read-out: Female Partition Coefficient (Kp), liver-plasma) of the same molecule?
A: The Kp at 120 h was 0.424.

Q: And the Kp at 120 h (female, Sprague Dawley (Crl:CD(SD)), rat, liver and plasma, 0.3 mg/kg/day, PFHxSA 0.3 mg/kg/day oral 5 days, female rats, mean ± SD, read-out: PFHxSA liver-to-plasma Kp, Female Rats)?
A: Its Kp at 120 h is 0.431 ± 0.16.

Q: What about the Kp at 120 h (female, Sprague Dawley (Crl:CD(SD)), rat, liver and plasma, 1 mg/kg/day, PFHxSA 1 mg/kg/day oral 5 days, female rats, mean ± SD, read-out: PFHxSA liver-to-plasma Kp, Female Rats) of the same molecule?
A: The Kp at 120 h was 0.21 ± 0.074.

Q: And the Kp at 120 h (female, Sprague Dawley (Crl:CD(SD)), rat, liver and plasma, 3 mg/kg/day, PFHxSA 3 mg/kg/day oral 5 days, female rats, mean ± SD, read-out: PFHxSA liver-to-plasma Kp, Female Rats)?
A: Its Kp at 120 h is 0.222 ± 0.048.

Q: What about the Kp at 120 h (female, Sprague Dawley (Crl:CD(SD)), rat, liver and plasma, 3 mg/kg/day, PFHxSA 3 mg/kg/day oral 5 days, female, individual rats, read-out: Female Partition Coefficient (Kp), liver-plasma) of the same molecule?
A: Its Kp at 120 h is 0.158.

Q: And the Kp at 120 h (female, Sprague Dawley (Crl:CD(SD)), rat, liver and plasma, 10 mg/kg/day, PFHxSA 10 mg/kg/day oral 5 days, female rats, mean ± SD, read-out: PFHxSA liver-to-plasma Kp, Female Rats)?
A: Its Kp at 120 h is 0.135 ± 0.03.

Q: What about the Kp at 120 h (female, Sprague Dawley (Crl:CD(SD)), rat, liver and plasma, 10 mg/kg/day, PFHxSA 10 mg/kg/day oral 5 days, female, individual rats, read-out: Female Partition Coefficient (Kp), liver-plasma) of the same molecule?
A: Its Kp at 120 h is 0.183.

Q: And the Kp at 120 h (female, Sprague Dawley (Crl:CD(SD)), rat, liver and plasma, 30 mg/kg/day, PFHxSA 30 mg/kg/day oral 5 days, female rats, mean ± SD, read-out: PFHxSA liver-to-plasma Kp, Female Rats)?
A: Its Kp at 120 h is 0.148 ± 0.011.

Q: And the Kp at 120 h (female, Sprague Dawley (Crl:CD(SD)), rat, liver and plasma, 30 mg/kg/day, PFHxSA 30 mg/kg/day oral 5 days, female, individual rats, read-out: Female Partition Coefficient (Kp), liver-plasma)?
A: The Kp at 120 h was 0.154.

Q: And the Kp at 120 h (female, Sprague Dawley (Crl:CD(SD)), rat, liver and plasma, 100 mg/kg/day, PFHxSA 100 mg/kg/day oral 5 days, female rats, mean ± SD, read-out: PFHxSA liver-to-plasma Kp, Female Rats)?
A: Its Kp at 120 h is 0.222 ± 0.072.

Q: And the Kp at 120 h (female, Sprague Dawley (Crl:CD(SD)), rat, liver/plasma, 0.1 mg/kg/day, PFHxSA 0.1 mg/kg/day oral 5 days, female rats, mean ± SD, read-out: PFHxSA liver-to-plasma Kp, Female Rats)?
A: Its Kp at 120 h is 0.42 ± 0.09.

Q: And the Kp at 120 h (male, Sprague Dawley (Crl:CD(SD)), rat, liver and plasma, 1 mg/kg/day, PFHxSA 1 mg/kg/day oral 5 days, male rats, mean ± SD, read-out: PFHxSA liver-to-plasma Kp, Male Rats)?
A: The Kp at 120 h was 0.223 ± 0.053.
